Patent US20210093582A1, “COMPOSITIONS FOR REDUCING TRIMETHYLAMINE-N-OXIDE AND RELATED THERAPEUTIC APPLICATIONS” (priority 2019, published 2021)

Tests used:
Type in all cases: in vivo, C57BL/6 (B6) mice
[1] = test system: VCAM-1; test: Aortic vascular inflammation gene expression by qPCR (VCAM-1); settings: female B6 mice, 1.3% carnitine water, 6 weeks; mRNA normalized to GAPDH
Protocol: (§1) Six-week-old female C57BL/6 (B6) mice were purchased from BioLASCO (Taipei, Taiwan) and were acclimatized for 1 week. Mice were fed ad libitum with experimental diets, LabDiet Rodent 5001. The animal use protocol listed below has been reviewed and approved by the Institutional Animal Care and Use Committee (NTU105-EL-00115). In the experiment, mice were randomly divided into four groups: normal diet, 1.3% carnitine water, 1.3% carnitine water with 0.05% pterostilbene diet (around 250 mg/kg/day), and 1.3% carnitine water with antibiotic cocktail for 6 weeks. Mice received a cocktail of oral antibiotics (vancomycin 500 mg/L, metronidazole 1 g/L, neomycin 1 g/L, and ampicillin 1 g/L in drinking water) for 6 weeks. […] At the end of the six-week study, mice were euthanized by CO2 asphyxiation.
(§2) Hepatic and aortic RNA was extracted using TRIzol reagent. Phase separation was performed by adding 200 μl chloroform/1 mlTRIzol. […]
(§3) Quality of RNA and RNA concentrations were then quantified using NanoDrop 1000 spectrophotometer. […]
(§4) mRNA levels were determined by quantitative real-time PCR usingStepOnePlus Real-Time PCR system and SYBR Green master mix as compared to constitutively expressed gene (GAPDH) using the relative quantification method (ΔΔCt), Primer sequences for SYBR Green reactions were designed and synthesized by Mission Biotech.

[2] = Plasma TMAO level by LC-MS/MS; settings: female B6 mice, 1.3% carnitine water, 6 weeks
Protocol: as §1
LC-MS/MS was used to quantify plasma L-carnitine and TMAO in positive MRM mode, with the instrument water UPLC system (Acquity, Waters, Mildford, Mass., USA) and triple quadrupole mass spectrometer (TQS, Waters Micromass, Manchester, UK). […]
The MS parameters were set as follow: 100° C. for the source temperature, 650° C. for the desolvation temperature, 2 L/h for the cone gas flow, 600 L/h for the desolvation gas flow and 1500 V for the capillary voltage. Cone voltage was set a 10 V. Concentrations of each analyte in samples were determined by calibration curves.

[3] = test system: FMO3; test: Hepatic FMO3 mRNA expression by RT-qPCR; settings: female B6 mice, 6 weeks; normalized to GAPDH
Protocol: as §1, §2, §3, §4

[4] = test system: cecal microbiota; test: Cecal microbiota composition by 16S rRNA gene sequencing; settings: mouse cecum, 6 weeks
Protocol: as §1
Microbial community composition was assessed by pyrosequencing 16S rRNA genes derived from mouse cecum (n=3 for each group). Total DNA was isolated and purified using InnuSPEED Stool DNA kit according to the manufacturer's instructions. The quality of DNA samples was assessed by NanoDrop 1000 spectrophotometer. DNA samples were sent to Biotools Co., Ltd.for 16S rRNA gene amplification, sequence library construction and sequencing. […] The library DNA was sequenced by IlluminaHiSeq2500 platform, and paired-end reads (250 bp) were generated.

[5] = test system: E-selectin; test: Aortic vascular inflammation gene expression by qPCR (E-selectin); settings: female B6 mice, 1.3% carnitine water, 6 weeks; mRNA normalized to GAPDH
Protocol: as §1, §2, §3, §4

[6] = test system: TNF-α; test: Aortic vascular inflammation gene expression by qPCR (TNF-α); settings: female B6 mice, 1.3% carnitine water, 6 weeks; mRNA normalized to GAPDH
Protocol: as §1, §2, §3, §4

With `C[N+](C)(C)C[C@H](O)CC(=O)[O-]` [Carnitine, L-carnitine] the “expression of VCAM-1 in aortas” value [1] was “significantly enhanced”, the “increase in circulating TMAO level compared to ND group” value [2] was “up to 8 folds” and the “hepatic FMO3 mRNA expression level” value [3] was “approximately three-fold increase”. The “Erysipelotrichia (Turibacter) proportion / relative abundance” value [4] was “increase”, the “expression of E-selectin in aortas” value [5] was “significantly enhanced” and the “expression of TNF-α in aortas” value [6] was “significantly enhanced”.
